# What was measured:
# MCF7 = test: cells; conditions: Homo sapiens, MCF7, 24 h
# Description: Cytotoxicity against human MCF7 cells assessed as cell survivability after 24 hrs by crystal violet staining based microscopic analysis
# Carbonic anhydrase 9 = Carbonic anhydrase 9 (Homo sapiens, UniProt Q16790)
# Description: Inhibition of human recombinant CA9 preincubated for 15 mins prior to testing by stopped flow CO2 hydrase assay
Structure (SMILES),IC50 (MCF7) [µM],Ki (Carbonic anhydrase 9) [µM]
CN(C)c1ccc(/C=C2\N=C(c3ccc(Cl)cc3)N(Nc3csc(Nc4ccc(S(N)(=O)=O)cc4)n3)C2=O)cc1,44.5,
CN(C)c1ccc(-c2nc(Sc3csc(Nc4ccc(S(N)(=O)=O)cc4)n3)[nH]c(=O)c2C#N)cc1,85,
O=c1[nH]cc(F)c(=O)[nH]1 [FLUOROURACIL],11.1,
NS(=O)(=O)c1ccc(NC2=NC(=O)/C(=N/Nc3ccc(C(=O)O)cc3)S2)cc1,5.45,0.0064
NS(=O)(=O)c1ccc(Nc2nc(NN3C(=O)/C(=C/c4ccccc4)N=C3c3ccccc3)cs2)cc1,45.9,
NS(=O)(=O)c1ccc(N/N=C2\SC(Nc3ccc(S(N)(=O)=O)cc3)=NC2=O)cc1,2.79,0.0058
N#Cc1c(-c2ccc(Cl)cc2)nc(Sc2csc(Nc3ccc(S(N)(=O)=O)cc3)n2)[nH]c1=O,86.6,
N#Cc1c(-c2ccc(Cl)cc2)nc(NNc2csc(Nc3ccc(S(N)(=O)=O)cc3)n2)[nH]c1=O,> 150,
NS(=O)(=O)c1ccc(Nc2nc(Nc3ccc(C(=O)O)cc3)cs2)cc1,22.1,0.0088
NS(=O)(=O)c1ccc(Nc2nc(NN3C(=O)/C(=C/c4ccc(Cl)cc4)N=C3c3ccc(Cl)cc3)cs2)cc1,136,
NS(=O)(=O)c1ccc(Nc2csc(Nc3ccc(S(N)(=O)=O)cc3)n2)cc1,21.5,0.0073
NS(=O)(=O)c1ccc(Nc2nc(Nc3ccc(F)cc3)cs2)cc1,12,0.0056
CN(C)c1ccc(-c2nc(NNc3csc(Nc4ccc(S(N)(=O)=O)cc4)n3)[nH]c(=O)c2C#N)cc1,89.7,
NS(=O)(=O)c1ccc(Nc2nc(NN3C(=O)/C(=C/c4ccc(Cl)cc4)N=C3c3ccccc3)cs2)cc1,> 150,0.0292
NS(=O)(=O)c1ccc(Nc2nc(NN3C(=O)/C(=C/c4ccccc4)N=C3c3ccc(Cl)cc3)cs2)cc1,> 150,
NS(=O)(=O)c1ccc(Nc2nc(N3CCCCC3)cs2)cc1,24.3,0.0067
NS(=O)(=O)c1ccc(NC2=NC(=O)/C(=N/Nc3ccc(Cl)cc3)S2)cc1,10.7,
N#Cc1c(-c2ccccc2)nc(NNc2csc(Nc3ccc(S(N)(=O)=O)cc3)n2)[nH]c1=O,> 150,0.0065
CN(C)c1ccc(/C=C2\N=C(c3ccccc3)N(Nc3csc(Nc4ccc(S(N)(=O)=O)cc4)n3)C2=O)cc1,38.9,
NC(N)=NS(=O)(=O)c1ccc(N/N=C2\SC(Nc3ccc(S(N)(=O)=O)cc3)=NC2=O)cc1,11.9,0.0085
N#Cc1c(-c2ccccc2)nc(Sc2csc(Nc3ccc(S(N)(=O)=O)cc3)n2)[nH]c1=O,> 150,

# Reference: ChEMBL document CHEMBL3808361, “Synthesis of 4-(thiazol-2-ylamino)-benzenesulfonamides with carbonic anhydrase I, II and IX inhibitory activity and cytotoxic effects against breast cancer cell lines” (Bioorg Med Chem, 2016)
